These results are taken from US12319655B2, “RAF kinase inhibitors and methods of use thereof” (Deciphera Pharmaceuticals, LLC, priority 2021, dated 2025).

Structures are written as SMILES.

The target of assay [1] is B-Raf kinase (SEQ. ID NO: 2) (Homo sapiens (Human), UniProt P15056). The assay can be described thus: Biochemical Assay for B-Raf (1). To be noted: Table J, assay version (1); read-out: BRAF (1) IC50. An outline of the steps:
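IC50 derived by four-parameter sigmoidal fit of percent inhibition, normalised to uninhibited and reference-inhibitor controls, using reaction rates over 4–5 h. Coupled spectrophotometric readout (NADH loss at 340 nm, 6 h, 30° C.); 1 mM ATP, 30.1 nM MEK, 0.13 nM B-Raf, pH 7.5 Tris buffer, 1% DMSO.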

The test system of the next assay is A375 cells. In words: A375 Cell Proliferation Assay (1). The assay is classed as cell-based. As to conditions: Homo sapiens, A-375. Put shortly:
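Resazurin fluorescence (excitation 540 nm, emission 600 nm, after a further 5-6 h) gave IC50s from triplicate compound dilution series.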

Assay [2] has as its target A-Raf kinase (SEQ. ID No: 1) (Homo sapiens (Human), UniProt P10398, Y301D/Y302D). The assay can be described thus: Biochemical Assay for A-Raf (1). To be noted: Table J, assay version (1); read-out: ARAF (1) IC50. An outline of the steps:
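IC50 values were derived by four-parameter sigmoidal fitting of percent inhibition, calculated from reaction rates over the 4–5 h window. Absorbance at 340 nm was tracked for 6 h at 30 °C via coupled PK/LDH NADH depletion. Conditions: 1 mM ATP, 30.1 nM MEK substrate, 5.55 nM A-Raf (Y301D/Y302D), Tris pH 7.5, 1% DMSO.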

B-Raf kinase (SEQ. ID NO: 2), sequence (P15056 416-766): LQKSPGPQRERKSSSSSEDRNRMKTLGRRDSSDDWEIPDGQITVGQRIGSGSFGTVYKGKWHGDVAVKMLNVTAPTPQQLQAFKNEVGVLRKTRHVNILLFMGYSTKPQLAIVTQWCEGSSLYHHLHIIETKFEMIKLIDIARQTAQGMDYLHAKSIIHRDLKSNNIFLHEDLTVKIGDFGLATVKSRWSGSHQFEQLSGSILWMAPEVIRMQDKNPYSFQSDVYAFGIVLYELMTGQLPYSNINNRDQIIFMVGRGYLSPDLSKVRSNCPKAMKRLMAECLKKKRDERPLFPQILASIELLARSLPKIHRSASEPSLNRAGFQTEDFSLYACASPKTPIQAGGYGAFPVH
A-Raf kinase (SEQ. ID No: 1), sequence (P10398 other isoform, or with tags, fused parts or gaps Y301D (already in the parent)/Y302D (already in the parent)): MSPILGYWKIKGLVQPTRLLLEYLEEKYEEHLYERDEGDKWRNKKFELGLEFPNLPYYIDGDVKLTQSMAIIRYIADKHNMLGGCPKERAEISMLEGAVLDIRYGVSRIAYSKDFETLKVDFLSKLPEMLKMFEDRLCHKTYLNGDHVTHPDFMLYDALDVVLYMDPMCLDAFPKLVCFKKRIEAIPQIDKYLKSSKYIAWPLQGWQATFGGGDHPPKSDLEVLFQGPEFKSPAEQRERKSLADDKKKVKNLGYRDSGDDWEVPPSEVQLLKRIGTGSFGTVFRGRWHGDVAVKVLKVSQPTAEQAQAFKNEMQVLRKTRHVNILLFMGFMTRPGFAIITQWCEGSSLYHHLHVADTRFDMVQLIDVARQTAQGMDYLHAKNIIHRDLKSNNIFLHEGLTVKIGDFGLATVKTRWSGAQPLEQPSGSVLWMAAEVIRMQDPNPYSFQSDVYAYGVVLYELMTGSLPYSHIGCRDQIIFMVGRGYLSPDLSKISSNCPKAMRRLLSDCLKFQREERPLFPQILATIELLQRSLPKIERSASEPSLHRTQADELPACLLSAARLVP

Consider `CNc1cc(-c2cncc(-c3cc(NC(=O)c4ccnc(C(C)(C)C#N)c4)ccc3C)n2)ccn1` [Example 173], for which the IC50 in assay [1] fell in the range of 100 to 500 nM; in the assay with A375 cells, 500 to 1000 nM; in assay [2], 1000 to 10000 nM.

Turning to `COCC(=O)Nc1cc(-c2cccc(-c3cc(NC(=O)c4ccnc(C(F)(F)F)c4)cnc3C)n2)ccn1` [Example 130], the IC50 in assay [1] is at most 100 nM; in the assay on A375 cells, 1000 to 10000 nM; in assay [2] it was 1000 to 10000 nM.

On to `Cc1ccc(NC(=O)c2ccnc(C(F)(F)F)c2)cc1-c1cncc(-c2ccnc(NC(=O)CN(C)C)c2)n1` [Example 100], for which the values for the concentration for half-maximal inhibition (IC50) (in assay [1]; in the assay on A375 cells; in assay [2]) were at most 100 nM, 100 to 500 nM and 1000 to 10000 nM, respectively.

`CNC(=O)c1cc(-c2cncc(-c3cc(NC(=O)c4ccnc(C5CC5)c4)ccc3C)n2)ccn1` [Example 139]: the 50% inhibitory concentration (IC50) is at most 100 nM in assay [1], 1000 to 10000 nM in the assay on A375 cells and 1000 to 10000 nM in assay [2].

For `Cc1ccc(NC(=O)c2ccnc(C(F)(F)F)c2)cc1-c1cncc(-c2ccnc(NC(=O)CC#N)c2)n1` [Example 98], the IC50 in assay [1] is at most 100 nM; in the assay with A375 cells, 500 to 1000 nM; in assay [2], 100 to 500 nM.

On to `CC(=O)Nc1cc(-c2cncc(-c3cc(NC(=O)c4ccc(Cl)c(C(F)(F)F)c4)ccc3C)n2)ccn1` [Example 121], for which the values for the IC50 (in assay [1]; in the assay on A375 cells; in assay [2]) were at most 100 nM, 100 to 500 nM and 1000 to 10000 nM, respectively.

As to `CC(=O)Nc1cc(-c2cc(-c3cc(NC(=O)c4ccnc(C(F)(F)F)c4)c(F)cc3C)cc(C)n2)ccn1` [Example 4], the figures for the concentration for half-maximal inhibition (IC50) (in assay [1]; in the assay with A375 cells; in assay [2]) were at most 100 nM, 100 to 500 nM and 1000 to 10000 nM, respectively.

Consider `CC(=O)Nc1cc(-c2cc(-c3cc(NC(=O)c4ccnc(C(F)(F)F)c4)ccc3C)cc(=O)n2C)ccn1` [Example 11], for which the half-maximal inhibitory concentration (IC50) in assay [1] lay in the range of 100 to 500 nM; in the assay with A375 cells it was 1000 to 10000 nM; in assay [2] it was 1000 to 10000 nM.

Regarding `COCC(=O)Nc1cc(-c2cncc(-c3cc(NC(=O)c4ccnc(C(C)(C)C#N)c4)ccc3C)n2)ccn1` [Example 142], the results for the IC50 (in assay [1]; in the assay with A375 cells; in assay [2]) were at most 100 nM, at most 100 nM and 1000 to 10000 nM, respectively.

With `Cc1ccc(NC(=O)c2ccnc(C(C)(C)C#N)c2)cc1-c1cccc(-c2ccnc3[nH]ccc23)c1` [Example 133], the IC50 in assay [1] fell in the range of 100 to 500 nM; in the assay with A375 cells, 1000 to 10000 nM; in assay [2], 1000 to 10000 nM.

As for `COCC(=O)Nc1cc(-c2cncc(-c3cc(NC(=O)c4ccnc(C(F)(F)F)c4)ccc3C)n2)ccn1` [Example 99], the results for the 50% inhibitory concentration (IC50) (in assay [1]; in the assay on A375 cells; in assay [2]) were at most 100 nM, 500 to 1000 nM and 1000 to 10000 nM, respectively.

Regarding `Cc1cc(F)c(NC(=O)c2ccnc(C(F)(F)F)c2)cc1-c1ccnc(-c2ccnc(NC(=O)CN(C)C)c2)c1` [Example 7], the half-inhibitory concentration (IC50) in assay [1] is at most 100 nM; in the assay with A375 cells it was 500 to 1000 nM; in assay [2], 1000 to 10000 nM.

On to `CC(=O)Nc1cc(-c2nccc(-c3cc(NC(=O)c4ccnc(C(F)(F)F)c4)c(F)cc3C)n2)ccn1` [Example 107], for which the IC50 in assay [1] is at most 100 nM; with A375 cells it was 100 to 500 nM; in assay [2], 500 to 1000 nM.

Regarding `CNC(=O)c1cc(-c2cccc(-c3cc(NC(=O)c4ccnc(C(F)(F)F)c4)ccc3C)c2)ncn1` [Example 106], the IC50 in assay [1] fell in the range of 100 to 500 nM; with A375 cells, 500 to 1000 nM; in assay [2], 1000 to 10000 nM.

`Cc1ccc(NC(=O)c2ccnc(C(C)(C)C#N)c2)cc1-c1cncc(-c2ccnc(N)c2)n1` [Example 141]: the IC50 in assay [1] is 100 to 500 nM; in the assay on A375 cells, 1000 to 10000 nM; in assay [2] it was 1000 to 10000 nM.

Regarding `CNC(=O)c1cc(-c2cc(-c3cc(NC(=O)c4cccc(C(C)(C)C#N)c4)ccc3C)ccn2)ccn1` [Example 127], the values for the 50% inhibitory concentration (IC50) (in assay [1]; in the assay with A375 cells; in assay [2]) were at most 100 nM, at most 100 nM and 1000 to 10000 nM, respectively.

For `CC(=O)Nc1cc(-c2nccc(-c3cc(NC(=O)c4cc(C(F)(F)F)ccn4)ccc3C)n2)ccn1` [Example 153], the IC50 in assay [1] was at most 100 nM; with A375 cells, at most 100 nM; in assay [2], 100 to 500 nM.

With `CC(=O)Nc1cc(-c2cc(-c3cc(NC(=O)c4ccnc(C(F)(F)F)c4)ccc3C)cn(CCO)c2=O)ccn1` [Example 102], the IC50 was in the range of 100 to 500 nM in assay [1], 1000 to 10000 nM in the assay on A375 cells and 1000 to 10000 nM in assay [2].

With `COCCNc1cc(-c2cncc(-c3cc(NC(=O)c4ccnc(C(C)(C)C#N)c4)ccc3C)n2)ccn1` [Example 143], the IC50 in assay [1] lay in the range of 100 to 500 nM; in the assay with A375 cells it was 1000 to 10000 nM; in assay [2], 1000 to 10000 nM.

In the case of `COc1cc(C(=O)Nc2ccc(C)c(-c3cncc(-c4ccnc(NC(C)=O)c4)n3)c2)ccc1F` [Example 120], the IC50 in assay [1] is at most 100 nM; in the assay on A375 cells, 1000 to 10000 nM; in assay [2] it was 1000 to 10000 nM.

With `Cc1ncc(NC(=O)c2ccnc(C(F)(F)F)c2)cc1-c1cccc(-c2ccnc(N)c2)c1` [Example 94], the concentration for half-maximal inhibition (IC50) in assay [1] lay within 100 to 500 nM; in the assay with A375 cells, 1000 to 10000 nM; in assay [2], 1000 to 10000 nM.

In the case of `CNC(=O)c1cc(-c2cncc(-c3cc(NC(=O)c4cc(C(F)(F)F)ccn4)ccc3C)n2)ccn1` [Example 135], the figures for the half-maximal inhibitory concentration (IC50) (in assay [1]; with A375 cells; in assay [2]) were at most 100 nM, 500 to 1000 nM and 1000 to 10000 nM, respectively.

For the compound `CNC(=O)c1cc(-c2cncc(-c3cc(NC(=O)c4cccc(C(C)(C)C#N)c4)ccc3C)n2)ccn1` [Example 136], the IC50 in assay [1] is at most 100 nM; in the assay on A375 cells it was at most 100 nM; in assay [2] it was 1000 to 10000 nM.

On to `CC(=O)Nc1cc(-c2cc(-c3cc(NC(=O)c4ccnc(C(F)(F)F)c4)ccc3C)ccn2)ccn1` [Example 6], for which the values for the concentration for half-maximal inhibition (IC50) (in assay [1]; with A375 cells; in assay [2]) were at most 100 nM, at most 100 nM and 100 to 500 nM, respectively.

With `CNC(=O)c1cc(-c2nccc(-c3cc(NC(=O)c4ccnc(C(C)(C)C#N)c4)c(F)cc3C)n2)ccn1` [Example 166], the half-maximal inhibitory concentration (IC50) in assay [1] lay in the range of 100 to 500 nM; in the assay on A375 cells, 100 to 500 nM; in assay [2], 1000 to 10000 nM.

Consider `CCOc1cc(-c2cc(NC(=O)c3ccnc(C(F)(F)F)c3)ccc2C)cc(-c2ccnc(NC(C)=O)c2)n1` [Example 8], for which the IC50 in assay [1] is at most 100 nM; with A375 cells, at most 100 nM; in assay [2] it was 1000 to 10000 nM.

On to `CNC(=O)c1cc(-c2cncc(-c3cc(NC(=O)c4ccnc(C5(C#N)CC5)c4)ccc3C)n2)ccn1` [Example 138], for which the figures for the IC50 (in assay [1]; with A375 cells; in assay [2]) were at most 100 nM, 100 to 500 nM and 1000 to 10000 nM, respectively.
